Results on eleven molecules are retold here after BindingDB's records for patent US20240270732 (Chengdu Biobel Biotechnology Co., 2024).

pIC50: −log10 of the molar value.

The target in the assay is T1, Receptor-interacting serine/threonine-protein kinase 1 (Homo sapiens, UniProt Q13546).
T1 sequence (Q13546 whole entry): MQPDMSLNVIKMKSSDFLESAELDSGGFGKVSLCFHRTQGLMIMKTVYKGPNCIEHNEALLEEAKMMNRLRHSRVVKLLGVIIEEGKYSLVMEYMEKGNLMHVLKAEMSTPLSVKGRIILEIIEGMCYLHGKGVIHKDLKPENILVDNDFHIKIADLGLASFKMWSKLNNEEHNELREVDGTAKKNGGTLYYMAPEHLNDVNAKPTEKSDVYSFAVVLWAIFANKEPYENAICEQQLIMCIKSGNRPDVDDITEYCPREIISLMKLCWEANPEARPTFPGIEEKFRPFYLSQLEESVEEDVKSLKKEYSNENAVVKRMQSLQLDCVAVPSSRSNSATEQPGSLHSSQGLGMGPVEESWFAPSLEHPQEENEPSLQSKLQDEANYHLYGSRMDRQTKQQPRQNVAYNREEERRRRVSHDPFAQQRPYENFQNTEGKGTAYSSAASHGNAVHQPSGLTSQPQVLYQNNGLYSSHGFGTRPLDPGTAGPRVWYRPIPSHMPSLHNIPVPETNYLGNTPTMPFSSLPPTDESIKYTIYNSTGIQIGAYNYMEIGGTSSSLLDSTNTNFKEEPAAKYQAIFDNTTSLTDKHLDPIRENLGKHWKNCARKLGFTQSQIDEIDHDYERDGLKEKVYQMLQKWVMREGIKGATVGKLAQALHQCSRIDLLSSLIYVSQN
Put plainly: Inhibitory Activity Assay. In outline: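 Compounds were titrated 22-point, 1:1.5 from 2 μM top concentration, in 50 mM Hepes pH 7.5, 50 mM NaCl, 30 mM MgCl2, 1 mM DTT, 0.02% CHAPS, 0.5 mg/mL BSA. After the kinase reaction, ADP-Glo reagent was added for 1 h at room temperature, then detection solution for 30 min, and luminescence was read.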
As for `C[C@H]1Oc2ccc(C#Cc3cccc(S(=O)(=O)O)c3)cc2N(C)C(=O)[C@H]1NC(=O)c1n[nH]c(Cc2ccccc2)n1` [US20240270732, Compound I-113], the pIC50 – broadly, −log10 of the IC50, conventionally taken in molar units – was 8.03.

For `C[C@H]1Oc2ccc(C#Cc3cccc(S(=O)(=O)O)c3)cc2N(C)C(=O)[C@H]1NC(=O)c1ncn(Cc2ccccc2)n1` [US20240270732, Compound I-114], the pIC50 was 7.93.

Consider `C[C@H]1Oc2ccc(C#Cc3cccc([N+](=O)[O-])c3)cc2N(C)C(=O)[C@H]1NC(=O)c1n[nH]c(Cc2ccccc2)n1` [US20240270732, Compound I-115], for which the negative logarithm of the IC50 (pIC50) is 8.13.

`C[C@H]1Oc2ccc(C#Cc3cccc([N+](=O)[O-])c3)cc2N(C)C(=O)[C@H]1NC(=O)c1ncn(Cc2ccccc2)n1` [US20240270732, Compound I-116] showed a pIC50 of 8.10.

`C[C@H]1Oc2ccc(C#Cc3cccc(N)c3)cc2N(C)C(=O)[C@H]1NC(=O)c1ncn(Cc2ccccc2)n1` [US20240270732, Compound I-118] gave a pIC50 of 7.86.

`C#Cc1ccc2c(c1)N(C)C(=O)[C@@H](NC(=O)c1nc(Cc3ccccc3)n[nH]1)[C@@H](C)O2` [US20240270732, Compound I-119] showed a negative-log IC50 (pIC50) of 8.01.

Molecule `C#Cc1ccc2c(c1)N(C)C(=O)[C@@H](NC(=O)c1ncn(Cc3ccccc3)n1)[C@@H](C)O2` [US20240270732, Compound I-120] had a pIC50 of 7.97.

Consider `CN1C(=O)[C@@H](NC(=O)c2ncn(Cc3ccccc3)n2)COc2ccc(CCCN3CCN(CCCc4ccc5c(c4)N(C)C(=O)[C@@H](NC(=O)c4ncn(Cc6ccccc6)n4)CO5)CC3)cc21` [US20240270732, Compound I-121], for which the negative-log IC50 (pIC50) is 8.31.

In the case of `C[C@H]1Oc2ccc(CCCN3CCN(CCCc4ccc5c(c4)N(C)C(=O)[C@@H](NC(=O)c4ncn(Cc6ccccc6)n4)[C@@H](C)O5)CC3)cc2N(C)C(=O)[C@H]1NC(=O)c1ncn(Cc2ccccc2)n1` [US20240270732, Compound I-122], the pIC50 was 8.50.

`CN1C(=O)[C@@H](NC(=O)c2n[nH]c(Cc3ccccc3)n2)COc2ccc(CCCN3CCN(CCCc4ccc5c(c4)N(C)C(=O)[C@@H](NC(=O)c4n[nH]c(Cc6ccccc6)n4)CO5)CC3)cc21` [US20240270732, Compound I-123] showed a pIC50 of 8.50.

For `C[C@H]1Oc2ccc(CCCN3CCN(CCCc4ccc5c(c4)N(C)C(=O)[C@@H](NC(=O)c4n[nH]c(Cc6ccccc6)n4)[C@@H](C)O5)CC3)cc2N(C)C(=O)[C@H]1NC(=O)c1n[nH]c(Cc2ccccc2)n1` [US20240270732, Compound I-124], the pIC50 is 8.32.
